Patent US20240269139A1, “COMPOUNDS FOR TARGETED PROTEIN DEGRADATION OF KINASES” (DANA-FARBER CANCER INSTITUTE, INC., priority 2020, published 2024)
Where two headings read alike, the source gives them in different places.

Key:
[1] = biological target: protein kinases (human kinome) (Homo sapiens, UniProt Q16877); type: cell-based; settings: PFKFB4 (Q16877); experiment wp071
[2] = biological target: T1, protein kinases (human kinome) (Homo sapiens, UniProt P52789); type: cell-based; settings: HK2 (P52789); experiment wp076
T1 sequence (P52789 1-917): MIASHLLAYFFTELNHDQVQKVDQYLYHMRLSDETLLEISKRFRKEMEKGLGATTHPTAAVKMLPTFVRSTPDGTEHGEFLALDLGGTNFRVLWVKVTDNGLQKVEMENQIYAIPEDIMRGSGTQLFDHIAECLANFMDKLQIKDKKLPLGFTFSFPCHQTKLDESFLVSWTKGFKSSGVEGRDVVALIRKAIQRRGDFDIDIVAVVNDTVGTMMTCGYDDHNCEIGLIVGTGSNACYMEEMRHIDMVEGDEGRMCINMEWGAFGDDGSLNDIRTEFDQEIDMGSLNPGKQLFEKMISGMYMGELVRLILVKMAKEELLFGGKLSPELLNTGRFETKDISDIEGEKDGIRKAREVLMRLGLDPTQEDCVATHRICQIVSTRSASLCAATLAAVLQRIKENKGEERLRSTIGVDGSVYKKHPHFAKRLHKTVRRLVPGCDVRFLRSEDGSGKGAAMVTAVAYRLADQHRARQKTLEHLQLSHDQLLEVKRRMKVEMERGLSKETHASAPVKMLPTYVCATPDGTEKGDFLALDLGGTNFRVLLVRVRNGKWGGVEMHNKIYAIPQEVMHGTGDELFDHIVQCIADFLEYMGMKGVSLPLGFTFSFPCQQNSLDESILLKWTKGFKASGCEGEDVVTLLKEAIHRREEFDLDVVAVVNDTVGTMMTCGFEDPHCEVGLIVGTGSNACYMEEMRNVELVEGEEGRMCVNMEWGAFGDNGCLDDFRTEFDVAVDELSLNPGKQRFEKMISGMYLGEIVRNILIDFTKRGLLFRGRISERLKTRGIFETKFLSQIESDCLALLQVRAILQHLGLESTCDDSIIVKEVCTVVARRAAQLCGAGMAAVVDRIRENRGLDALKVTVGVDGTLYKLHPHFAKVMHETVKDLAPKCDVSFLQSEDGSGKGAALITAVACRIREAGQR

[3] = biological target: T2, protein kinases (human kinome) (Homo sapiens, UniProt O14965); type: cell-based; settings: experiment wp076
T2 sequence (O14965 1-403): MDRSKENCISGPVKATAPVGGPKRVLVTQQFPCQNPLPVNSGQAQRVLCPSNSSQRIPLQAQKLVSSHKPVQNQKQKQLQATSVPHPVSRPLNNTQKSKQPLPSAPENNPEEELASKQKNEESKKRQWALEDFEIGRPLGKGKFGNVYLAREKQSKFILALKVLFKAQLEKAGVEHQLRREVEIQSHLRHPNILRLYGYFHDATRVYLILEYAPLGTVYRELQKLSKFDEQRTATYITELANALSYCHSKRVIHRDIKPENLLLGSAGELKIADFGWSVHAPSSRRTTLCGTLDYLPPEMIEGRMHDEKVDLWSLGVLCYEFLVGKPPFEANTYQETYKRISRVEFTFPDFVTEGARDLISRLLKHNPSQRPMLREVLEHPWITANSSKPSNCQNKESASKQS

[4] = biological target: protein kinases (human kinome) (Homo sapiens, UniProt Q9BYT3); type: cell-based; settings: STK33 (Q9BYT3-1), experiment wp076
[5] = biological target: protein kinases (human kinome) (Homo sapiens, UniProt P30291); type: cell-based; settings: experiment wp076
[6] = biological target: protein kinases (human kinome) (Homo sapiens, UniProt P51812); type: cell-based; settings: RPS6KA3 (P51812), experiment wp076
[7] = biological target: T3, protein kinases (human kinome) (Homo sapiens, UniProt O60285); type: cell-based; settings: NUAK1 (O60285), experiment wp076
T3 sequence (O60285 1-661): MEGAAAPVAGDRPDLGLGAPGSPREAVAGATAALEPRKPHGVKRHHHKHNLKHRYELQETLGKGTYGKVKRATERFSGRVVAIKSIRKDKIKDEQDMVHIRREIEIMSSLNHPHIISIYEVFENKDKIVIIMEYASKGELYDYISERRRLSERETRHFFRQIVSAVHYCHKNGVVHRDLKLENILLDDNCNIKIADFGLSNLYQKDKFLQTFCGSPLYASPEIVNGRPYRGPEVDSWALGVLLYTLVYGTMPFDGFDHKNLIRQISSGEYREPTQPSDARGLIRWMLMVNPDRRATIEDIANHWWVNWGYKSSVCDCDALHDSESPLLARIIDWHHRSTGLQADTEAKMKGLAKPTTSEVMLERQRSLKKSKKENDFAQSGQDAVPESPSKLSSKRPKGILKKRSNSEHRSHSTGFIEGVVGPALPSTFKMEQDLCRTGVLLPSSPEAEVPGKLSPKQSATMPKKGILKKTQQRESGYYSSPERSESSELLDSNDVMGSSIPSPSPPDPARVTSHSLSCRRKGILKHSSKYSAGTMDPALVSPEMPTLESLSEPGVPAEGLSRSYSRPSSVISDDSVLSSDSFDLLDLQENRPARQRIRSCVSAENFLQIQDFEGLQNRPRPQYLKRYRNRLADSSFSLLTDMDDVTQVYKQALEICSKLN

[8] = system: protein kinases (human kinome); type: cell-based
[9] = biological target: protein kinases (human kinome) (Homo sapiens, UniProt Q14289); type: cell-based
[10] = biological target: T4, CRBN (Homo sapiens, UniProt Q96SW2); assay: Competitive displacement assay for cellular CRBN engagement (BRD4BD2-GFP reporter, dBET6); type: cell-based, H. sapiens; settings: 5 hours in presence of dBET6
T4 construct: HEK293T cells stably expressing the BRD4BD2-GFP with mCherry reporter; endogenous in cells; host or cells: HEK293T stably expressing BRD4BD2-GFP / mCherry reporter
Experimental: HEK293T cells stably expressing the BRD4BD2-GFP with mCherry reporter were seeded at 30-50% confluency in 384-well plates with 50 μL FluoroBrite™ Dulbecco's Modified Eagle's medium (DMEM) media (Thermo Fisher Scientific. A18967) containing 10% fetal bovine serum (FBS) per well a day before compound treatment. Degrader titrations and 100 nM dBET6 or 250 nM AT1 were dispensed using a D300e Digital Dispenser (HP), normalized to 0.5% DMSO, and incubated with cells for 5 hours. Assay plates were imaged using Acumen® (TTP Labtech), as described above.

[11] = type: cell-based, H. sapiens; settings: MOLT-4, 1 μM, 5 h, 5 μM CB-5083
[12] = biological target: T5, CRBN-degrader-kinase ternary complexes (Homo sapiens, UniProt Q96SW2); assay: FLAG-CRBN affinity purification TMT LC-MS3 (AP-MS) of degrader-mediated ternary complexes; type: cell-based, H. sapiens; settings: HEK293T, 1 μM, 5 h, proteasome inhibitor
T5 construct: host or cells: HEK293T
Text: An important aspect of protein degraders is the multifaceted nature of the molecule that enables heightened target selectivity due to differences in complementarity of target-ligase interactions, which is not a consideration when assessing selectivity of inhibitors for target engagement (Famaby el al., Nat Chem Biol 15:672-680 (2019)). For compound-induced degradation to be successful, productive ternary complex formation (ligase-degrader-POI) is necessary for proximity-mediated ubiquitin transfer onto the POI. […] Cellular affinity purification was performed, followed by mass spectrometry (AP-MS) of FLAG-tagged CRBN transiently overexpressed in HEK293T cells. FLAG-CRBN expressing cells were co-treated with proteosome inhibitor and 1 μM of each degrader for 5 h, and the degree of kinase target enrichment was compared to kinase degradation hits in matched global proteomics analysis experiments (FIG. 3A, FIG. 3C). The proteins identified as complexed with CRBN were enriched for kinases as well as their known binding partners such as Cyclin B (CDK1) and RASSF1 (STK4), consistent with the binding profiles of the assayed degraders. All kinases identified by AP-MS except CSNK1A1 were also detected in the HEK293T whole proteome degrader profiling experiment, allowing us to interrogate trends across 52 unique kinases (FIG. 4A; FIG. 11B). Limitations of this experiment include the potential loss of transient or weakly bound complexes in the enrichment and subsequent wash steps, the inherent noise associated with AP-MS relative to global proteomics analysis (Dunham et al., Proteomics 12:1576-1590 (2012): Yugandhar et al., Comput Struct Biotechnol J 17:805-811 (2019)) and the short time point of the experiment, which precludes detection of degradation events with slow kinetics. Therefore, the relationship between the formation of abundant, stable ternary complexes and rapid degradation was assessed.
HEK293T cells were seeded into 15 cm plates and cells were transiently transfected with 8 μg of pNTM-FLAG-CRBN construct using lipofectamine 2000. […] Cells were harvested with non-enzymatic CellStripper™ Dissociation reagent (Corning®), followed by three washes with cold PBS and snap freezing. Cell lysis was performed by the addition of IP lysis buffer (50 mM Tris. pH 7.5, 0.5% NP-40, 1 mM EDTA, 10% glycerol and 200 mM NaCl) containing protease inhibitor cocktail (cOmplete™) and relevant co-treatment (above), followed by end-over-end rotation at 4° C. for 3 hours. Lysate was clarified by centrifugation and salt concentration diluted to 100 mM NaCl with the addition of 0 mM NaCl lysis buffer (containing protease inhibitors and 1 μM of relevant compounds to retain temary complexes throughout binding). Lysate was added to 20 μL of pre-washed anti-FLAG M2 magnetic bead slurry (MilliporeSigma) and incubated with end-over-end rotation at 4° C. overnight. Beads were washed six times with 100 mM NaCl lysis buffer containing 1 μM of relevant degraders to retain ternary complexes throughout wash steps.
Proteins were eluted in a two-step elution with the addition of 0.1 M Glycine hydrochloride (MilliporeSigma) and elution buffered to pH 8.5 using 200 mM Tris buffer, pH 8.5. […] Protein pellets were resuspended in 50 μL of EPPs pH 8 and first digested with 2 μg LysC for 12 h at room temperature (RT), followed by 1 μg of trypsin for 6 hours at 37° C.

COc1cc(N2CCN(CC(=O)NCCCCCCNc3cccc4c3C(=O)N(C3CCC(=O)NC3=O)C4=O)CC2)ccc1Nc1ncc2c(n1)N(C)c1ccccc1C(=O)N2CC(F)(F)F (stereo not shown) [FMF.04.135.1]
logFC [1]: −0.4969

CNC(=O)c1ccccc1Nc1cc(Nc2ccc(N3CCN(CCCCCCCCNc4cccc5c4C(=O)N(C4CCC(=O)NC4=O)C5=O)CC3)cc2OC)ncc1C(F)(F)F (stereo not shown) [MFH.5.116.1]
logFC [2]: −0.4347
logFC AURKA (O14965) [3]: −0.707
logFC [4]: −1.382
logFC ([4]; direction down): −1.382
logFC of WEE1 ([5]; WEE1 P30291-1, degrader vs DMSO): −0.4799
logFC WEE1 (P30291-1) [5]: −0.4799
logFC [6]: −0.369
logFC ([6]; direction down): −0.369
logFC [7]: −0.7078
logFC ([7]; direction down): −0.7078
logFC RPS6KA1 ([8]; RPS6KA1 (Q15418-2), experiment wp076): −0.5757
logFC RPS6KA1 (Q15418-2) ([8]; experiment wp076): −0.5757
logFC ([9]; PTK2B (Q14289-1) protein abundance, degrader vs DMSO, down): −2.946
logFC PTK2B ([9]; PTK2B, accession Q14289-1, experiment wp076, direction of change down): −2.946

Nc1ncc(-c2ccc(S(=O)(=O)N(CCCNC(=O)CCOCCOCCOCCOCCOCCNc3cccc4c3C(=O)N(C3CCC(=O)NC3=O)C4=O)C3CC3)cc2)cc1-c1ccc2c(c1)CCNC2=O (stereo not shown) [WH-10417-099]
cellular permeability / CRBN engagement [10]: able to permeate the cell membrane and bind to the CRBN E3 ligase
STK4 degradation rescue on p97 inhibition [11]: very little degradation rescue
IRAK1: ternary complex formation with CRBN versus degradation [12]: complex formation does not predict degradation
targets with significantly different degrader efficacy in the different cell lines with no obvious difference in protein expression ([8]; MOLT-4, KELLY, HEK293T): GSK3B
kinases the bifunctional compound degrades ([8]; as stated for the structure in the embodiments): CDK14, CSNK1A1, CSNK1D, CSNK1E, GSK3A, GSK3B, LIMK2, MAP3K1, MINK1, NUAK1, PAK4, PIM2, STK10, STK17B, STK35, and STK4
Kinase hits ([8]; kinases significantly downregulated vs DMSO (fold change cutoff −1.25, P-value<0.01), ≤8 h, 0.1-5 μM degrader, 7 cell lines): CDK14, CSNK1A1, CSNK1D, CSNK1E, GSK3A, GSK3B, LIMK2, MAP3K1, MINK1, NUAK1, PAK4, PIM2, STK10, STKI7B, STK35, STK4
Total no. kinase hits ([8]; number of degraded kinases per library compound): 13
